In US8906914B2, “Ethylene diamine modulators of fatty acid hydrolase” (priority 2009, dated 2014):
Where a name gives a salt, the structure may show the parent alone.

What was measured:
Rat FAAH-1 = target: T1, Rat FAAH-1 (Rattus norvegicus, UniProt P97612); test: Rat FAAH-1 assay (Assay Method 2), 3H-anandamide hydrolysis in cell homogenate; format: biochemical
T1 construct: expressed in transfected cells
T1 sequence (P97612 1-579): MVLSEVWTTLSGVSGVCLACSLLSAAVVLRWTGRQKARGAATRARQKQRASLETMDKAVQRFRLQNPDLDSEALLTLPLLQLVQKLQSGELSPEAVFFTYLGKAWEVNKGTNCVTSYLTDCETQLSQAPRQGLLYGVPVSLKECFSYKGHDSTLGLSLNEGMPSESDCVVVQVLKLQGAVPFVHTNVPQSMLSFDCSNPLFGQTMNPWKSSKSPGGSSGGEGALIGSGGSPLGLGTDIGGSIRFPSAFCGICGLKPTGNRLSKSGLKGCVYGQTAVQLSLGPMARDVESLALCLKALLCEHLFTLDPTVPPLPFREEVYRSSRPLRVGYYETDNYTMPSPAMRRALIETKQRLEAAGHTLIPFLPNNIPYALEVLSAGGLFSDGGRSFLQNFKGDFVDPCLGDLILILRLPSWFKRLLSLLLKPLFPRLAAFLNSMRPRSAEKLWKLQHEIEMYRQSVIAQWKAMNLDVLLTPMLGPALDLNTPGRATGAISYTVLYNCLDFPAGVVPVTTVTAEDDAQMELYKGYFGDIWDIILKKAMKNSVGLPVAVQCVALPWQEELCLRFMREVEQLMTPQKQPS
Experimental: A. Transfection of Cells with Rat FAAH-1
(§1) A 10-cm tissue culture dish with a confluent monolayer of SK-N-MC cells was split 2 days (d) prior to transfection. Using sterile technique, the media was removed and the cells were detached from the dish by the addition of trypsin. One fifth of the cells were then placed onto a new 10-cm dish. Cells were grown in a 37° C. incubator with 5% CO2 in Minimal Essential Media Eagle with 10% Fetal Bovine Serum. After 2 d, cells were approximately 80% confluent. These cells were removed from the dish with trypsin and pelleted in a clinical centrifuge. The pellet was re-suspended in 400 μL complete media and transferred to an electroporation cuvette with a 0.4 cm gap between the electrodes. Supercoiled rat FAAH cDNA (1 μg) was added to the cells and mixed. The voltage for the electroporation was set at 0.25 kV, and the capacitance was set at 960 μF. After electroporation, the cells were diluted into complete media (10 mL) and plated onto four 10-cm dishes. Because of the variability in the efficiency of electroporation, four different concentrations of cells were plated. The ratios used were 1:20, 1:10, and 1:5, with the remainder of the cells being added to the fourth dish. The cells were allowed to recover for 24 h before adding the selection media (complete media with 600 μg/mL G418). After 10 d, dishes were analyzed for surviving colonies of cells. Dishes with well-isolated colonies were used. Cells from individual colonies were isolated and tested.
(§2) The assay mixture consisted of 50 μL of the cell homogenate, 10 μL of the test compound, and 40 μL of anandamide [1-^3H-ethanolamine] (^3H-AEA, Perkin-Elmer, 10.3 Ci/mmol), which was added last, for a final tracer concentration of 80 nM. The reaction mixture was incubated at rt for 1 h. During the incubation, 96-well Multiscreen filter plates (catalog number MAFCNOB50; Millipore, Bedford, Mass., USA) were loaded with 25 μL of activated charcoal (Multiscreen column loader, catalog number MACL09625, Millipore) and washed once with 100 μL of MeOH. Also during the incubation, 96-well DYNEX MicroLite plates (catalog number NL510410) were loaded with 100 μL of MicroScint40 (catalog number 6013641, Packard Bioscience, Meriden, Conn., USA). After the 1 h incubation, 60 μL of the reaction mixture were transferred to the charcoal plates, which were then assembled on top of the DYNEX plates using Centrifuge Alignment Frames (catalog number MACF09604, Millipore). The unbound labeled ethanolamine was centrifuged through to the bottom plate (5 min at 2000 rpm), which was preloaded with the scintillant, as described above. The plates were sealed and left at rt for 1 h before counting on a Hewlett Packard TopCount.
(§3) Where activity is shown as greater than (>) a particular value, the value is the solubility limit of the compound in the assay medium or the highest concentration tested in the assay.

FAAH = target: T2, FAAH (Homo sapiens, UniProt O00519); test: Human FAAH assay (Assay Method 1), 3H-anandamide hydrolysis in cell homogenate; format: biochemical; design: expressed in transfected cells; alternatively T84 frozen cell pellets (endogenous FAAH)
T2 sequence (O00519 1-579): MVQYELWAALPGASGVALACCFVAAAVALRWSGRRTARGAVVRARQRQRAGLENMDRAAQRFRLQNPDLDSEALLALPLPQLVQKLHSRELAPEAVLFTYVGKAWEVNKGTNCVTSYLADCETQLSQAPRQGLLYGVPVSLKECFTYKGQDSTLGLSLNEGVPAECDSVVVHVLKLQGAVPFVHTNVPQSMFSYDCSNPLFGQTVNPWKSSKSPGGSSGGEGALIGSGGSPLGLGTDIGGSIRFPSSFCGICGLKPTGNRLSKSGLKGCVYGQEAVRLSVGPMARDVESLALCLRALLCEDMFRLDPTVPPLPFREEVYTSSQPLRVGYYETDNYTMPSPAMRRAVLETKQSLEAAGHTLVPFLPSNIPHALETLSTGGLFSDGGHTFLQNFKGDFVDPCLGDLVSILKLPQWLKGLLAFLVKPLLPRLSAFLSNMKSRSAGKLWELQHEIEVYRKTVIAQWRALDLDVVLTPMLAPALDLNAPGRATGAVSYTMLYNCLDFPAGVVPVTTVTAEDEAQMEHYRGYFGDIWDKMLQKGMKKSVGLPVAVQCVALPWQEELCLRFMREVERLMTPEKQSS
Experimental: A. Transfection of Cells with Human FAAH
as §1, with “Supercoiled human” for “Supercoiled rat”
as §2, with “[1-3H-ethanolamine]” for “[1-^3H-ethanolamine]”
as §3

Compound	IC50 (Rat FAAH-1)	IC50 (FAAH)
N[C@@H](CNc1cc(-c2ccc(C(F)(F)F)cc2)ncn1)c1ccccc1 [Example 5, (1R)-1-Phenyl-N^2-{6-[4-(trifluoromethyl)phenyl]pyrimidin-4-yl}ethane-1,2-diamine hydrochloride acid salt]	1000 nM	130 nM
N[C@@H](CNc1cc(-c2cc(F)c(OC(F)F)c(F)c2)ncn1)c1ccccc1 [Example 12, (1R)—N^2-{6-[4-(Difluoromethoxy)-3,5-difluorophenyl]pyrimidin-4-yl}-1-phenylethane-1,2-diamine hydrochloride acid salt]	100 nM	12 nM
N[C@@H](CNc1cc(-c2ccc(OCC(F)(F)F)c(F)c2)ncn1)c1ccccc1 [Example 21, (1R)—N^2-{6-[3-Fluoro-4-(2,2,2-trifluoroethoxy)phenyl]pyrimidin-4-yl}-1-phenylethane-1,2-diamine hydrochloride acid salt]	675 nM	77 nM
N[C@@H](CNc1cc(-c2ccc(Cl)c(C(F)(F)F)c2)ncn1)c1ccccc1 [Example 17, (1R)—N^2-{6-[4-Chloro-3-(trifluoromethyl)phenyl]pyrimidin-4-yl}-1-phenylethane-1,2-diamine hydrochloride acid salt]	900 nM	250 nM
Cc1ccc2sc(-c3cc(NC[C@H](N)c4ccccc4)ncn3)cc2c1 [Example 9, (1R)—N^2-[6-(5-Methyl-1-benzothiophen-2-yl)pyrimidin-4-yl]-1-phenylethane-1,2-diamine hydrochloride acid salt]	320 nM	20 nM
N[C@@H](CNc1cc(-c2cccc(Cl)c2)ncn1)c1ccccc1 [Example 15, (1R)—N^2-[6-(3-Chlorophenyl)pyrimidin-4-yl]-1-phenylethane-1,2-diamine hydrochloride acid salt]	–	1000 nM

Continued, values first:

IC50 (Rat FAAH-1)	IC50 (FAAH)	Compound
40 nM	125 nM	N[C@@H](CNc1cc(-c2ccc(C(F)(F)F)c(Cl)c2)ncn1)c1ccc2ccccc2c1 [Example 51, (1R)—N^2-[6-(3-Chloro-4-trifluoromethyl-phenyl)-pyrimidin-4-yl]-1-naphthalen-2-yl-ethane-1,2-diamine]
60 nM	20 nM	N[C@@H](CNc1cc(-c2ccc(C(F)(F)F)c(Cl)c2)ncn1)c1ccc(F)c(F)c1 [Example 41, (1R)—N^2-[6-(3-Chloro-4-trifluoromethyl-phenyl)-pyrimidin-4-yl]-1-(3,4-difluoro-phenyl)-ethane-1,2-diamine, trifluoroacetic acid salt]
5000 nM	8000 nM	N[C@H](CNc1cc(-c2ccc(C(F)(F)F)c(Cl)c2)ncn1)c1ccc(Cl)c(Cl)c1 [Example 42, (1S)—N^2-[6-(3-Chloro-4-trifluoromethyl-phenyl)-pyrimidin-4-yl]-1-(3,4-dichloro-phenyl)-ethane-1,2-diamine]
300 nM	320 nM	N#Cc1cc([C@@H](N)CNc2cc(-c3ccc(C(F)(F)F)c(Cl)c3)ncn2)ccc1F [Example 62, (1R)-5-{1-Amino-2-[6-(3-chloro-4-trifluoromethyl-phenyl)-pyrimidin-4-ylamino]-ethyl}-2-fluoro-benzonitrile]
3000 nM	3000 nM	N[C@H](CNc1cc(-c2ccc(C(F)(F)F)c(Cl)c2)ncn1)c1ccc(F)c(Cl)c1 [Example 46, (1S)—N^2-1-(3-Chloro-4-fluoro-phenyl)-[6-(3-chloro-4-trifluoromethyl-phenyl)-pyrimidin-4-yl]-ethane-1,2-diamine]
240 nM	130 nM	N#Cc1ccc([C@@H](N)CNc2cc(-c3ccc(C(F)(F)F)c(Cl)c3)ncn2)cc1F [Example 52, (1R)-4-{1-Amino-2-[6-(3-chloro-4-trifluoromethyl-phenyl)-pyrimidin-4-ylamino]-ethyl}-2-fluoro-benzonitrile]
6000 nM	1200 nM	COc1ccccc1[C@@H](N)CNc1cc(-c2ccc(C(F)(F)F)c(Cl)c2)ncn1 [Example 56, (1R)—N^2-[6-(3-Chloro-4-trifluoromethyl-phenyl)-pyrimidin-4-yl]-1-(2-methoxy-phenyl)-ethane-1,2-diamine]
60 nM	33 nM	N[C@@H](CNc1cc(-c2ccc(C(F)(F)F)c(Cl)c2)ncn1)c1ccc(F)cc1 [Example 27, (1R)—N^2-[6-(3-Chloro-4-trifluoromethyl-phenyl)-pyrimidin-4-yl]-1-(4-fluoro-phenyl)-ethane-1,2-diamine]
110 nM	39 nM	N[C@@H](CNc1cc(-c2ccc(C(F)(F)F)c(Cl)c2)ncn1)c1cccc(F)c1 [Example 37, (1R)—N^2-[6-(3-Chloro-4-trifluoromethyl-phenyl)-pyrimidin-4-yl]-1-(3-fluoro-phenyl)-ethane-1,2-diamine, trifluoroacetic acid salt]
